Measured values taken from ChEMBL document CHEMBL1135240, “Benzene fused monocyclic enediynyl amides: synthesis, reactivity and DNA-cleavage activity in comparison to the corresponding sulfonamides” (Bioorg Med Chem Lett, 2002).

Tests used:
[1] = The compound was evaluated for half life at 70 deg. C; type: ADME
[2] = The compound was evaluated for rate constant at 70 deg. C; type: ADME

SMILES	half-life [1]	Rate constant [2]
O=[N+]([O-])c1ccc(S(=O)(=O)N2CC#Cc3ccccc3C#CCC2)cc1	2.04 days	0.0143 h⁻¹
O=C(c1ccc([N+](=O)[O-])cc1)N1CC#Cc2ccccc2C#CCC1	5.67 days	0.0051 h⁻¹
O=C(c1ccccc1)N1CC#Cc2ccccc2C#CCC1	7.83 days	0.0037 h⁻¹
O=[N+]([O-])c1ccc(S(=O)(=O)N2CC#Cc3ccccc3C#CCC2)c([N+](=O)[O-])c1	1.17 days	0.0244 h⁻¹
